This passage reports TGI results from PubChem BioAssay (NCI).

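Protocol summary: plate cells (96-well), add compound at 5 concentrations, incubate 48 h, interpolate endpoints linearly. TGI: total growth inhibition.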

Among the test systems are OVCAR-3 ovarian; DU-145 prostate; SK-MEL-28 melanoma; RXF 393 renal; TK-10 renal; SF-539 CNS; OVCAR-4 ovarian; NCI-H226 lung; SK-OV-3 ovarian; U251 CNS; NCI/ADR-RES ovarian; IGROV1 ovarian; MOLT-4 leukemia; HOP-62 NSCLC; SR leukemia; OVCAR-5 ovarian; HT29 colon; SF-268 CNS; A498 renal; MDA-MB-435.
Common to all, as to test: NCI anticancer screen, dose series, 48 h

As for `COC(=O)N/N=C(/c1nc2ccc([N+](=O)[O-])cc2[nH]c1=O)C(O)c1ccc(OC)c(OC)c1` (stereo not given), the TGI in the experiment with OVCAR-3 ovarian, in the experiment with DU-145 prostate, with SK-MEL-28 melanoma, in the experiment with RXF 393 renal, with TK-10 renal and in the experiment with SF-539 CNS was above 100 µM in each case. Besides, the TGI in the experiment with OVCAR-4 ovarian, in the experiment on NCI-H226 lung, in the experiment on SK-OV-3 ovarian, with U251 CNS, with NCI/ADR-RES ovarian and in the experiment with IGROV1 ovarian was above 100 µM throughout. For the same compound, the TGI was above 100 µM with MOLT-4 leukemia; above 100 µM in the experiment on HOP-62 NSCLC; 39 µM with SR leukemia; above 100 µM with OVCAR-5 ovarian; above 100 µM with HT29 colon; above 100 µM in the experiment with SF-268 CNS. In addition, the TGI with A498 renal and with MDA-MB-435 was above 100 µM each time.

Take `CC(C)NC(=O)OCc1c(COC(=O)NC(C)C)c(-c2cc[n+](COC(=O)C(C)C)cc2)n2c1CCC2`: the TGI in the experiment with OVCAR-3 ovarian is above 100 µM; with DU-145 prostate, above 100 µM; in the experiment on SK-MEL-28 melanoma, above 100 µM; in the experiment with RXF 393 renal, 62.5 µM; in the experiment with TK-10 renal it was above 100 µM; with SF-539 CNS, above 100 µM. Moreover, the TGI with OVCAR-4 ovarian, in the experiment on NCI-H226 lung, in the experiment on SK-OV-3 ovarian, in the experiment with U251 CNS, with NCI/ADR-RES ovarian and in the experiment with IGROV1 ovarian was above 100 µM each time. Also, the TGI is 99.2 µM with MOLT-4 leukemia; above 100 µM in the experiment with HOP-62 NSCLC; above 63.3 µM in the experiment on SR leukemia; above 100 µM with OVCAR-5 ovarian; above 100 µM in the experiment with HT29 colon; above 100 µM with SF-268 CNS. The TGI in the experiment on A498 renal is 35.9 µM; with MDA-MB-435 it was above 100 µM.

In the case of `N#CCC1(c2ccc(Cl)cc2)NC(=O)c2ccccc21` (stereo not given), the TGI in the experiment with OVCAR-3 ovarian, with DU-145 prostate, in the experiment with SK-MEL-28 melanoma, in the experiment with RXF 393 renal, in the experiment with TK-10 renal and in the experiment on SF-539 CNS was above 100 µM each time. For the same compound, the TGI in the experiment on OVCAR-4 ovarian, in the experiment with NCI-H226 lung, in the experiment with SK-OV-3 ovarian, in the experiment on U251 CNS, in the experiment on NCI/ADR-RES ovarian and with IGROV1 ovarian was above 100 µM each time. The TGI in the experiment with MOLT-4 leukemia, in the experiment with HOP-62 NSCLC, with SR leukemia, in the experiment on OVCAR-5 ovarian, with HT29 colon and in the experiment with SF-268 CNS was above 100 µM each time. In addition, the TGI in the experiment with A498 renal and in the experiment on MDA-MB-435 was above 100 µM in each case.
